Where two headings read alike, the source gives them in different places.

The test concerns OF1 mice. As to the kind of experiment: Maximal electroshock test (MES Test). It is filed as in vivo. The following applies: 50 mg/kg, p.o.; for responders at 50 mg/kg: Mus musculus, po, read-out: %-Protection. The procedure:
Compounds of the invention were tested in OF1 mice using the maximal electroshock test (MES Test) described in detail by Schmutz et al., Naunyn-Schmiedeberg's Arch Pharmacol 1990, 342, 61-66. Briefly, generalized tonic-clonic convulsions of the hind extremities were induced by passing electrical current through temporal electrodes (50 Hz, 18 mA, 0.2s). […] 30 mg/kg carbamazepine was used as a positive control; mice were classified as protected by a compound If the duration of the seizure lasted only 3 second or less. Five mice were used for each treatment condition and the percentage of protected mice was used as readout (i.e. a compound could give 0%, 20%, 40%, 60%, 80% or 100% protection). Usually, compounds of the invention or their parents were given at a dose of 50 mg/kg, p.o., 1 hour prior to induction of convulsions (i.e. “pre-treatment time −1 h”).
ED50 values (ED: effective dose) were calculated using GraphPad Prism, v4.02. after shock administration, mouse blood was collected for determination of compounds' blood exposure.
In general terms: In the maximal electroshock model the usual endpoint is tonic extension of the hind limbs.

Turning to `CCCCOC(=O)N(n1c(=O)[nH]c2cc(C(C)C)c(-c3ccnn3C)cc2c1=O)S(C)(=O)=O` [Example 3.21, [7-Isopropyl-6-(2-methyl-2H-pyrazol-3-yl)-2,4-dioxo-1,4-dihydro-2H-quinazolin-3-yl]-methanesulfonyl-carbamic acid butyl ester], the responders at 50 mg/kg (pre-treatment time −1 h) worked out at 100%.
Same read-out and setting: for `CCCCCCOC(=O)N(n1c(=O)[nH]c2cc(C(C)C)c(-c3ccnn3C)cc2c1=O)S(C)(=O)=O` [Example 3.22, [7-Isopropyl-6-(2-methyl-2H-pyrazol-3-yl)-2,4-dioxo-1,4-dihydro-2H-quinazolin-3-yl]-methanesulfonyl-carbamic acid hexyl ester] the value was 100%.
For `CC(C)c1cc2[nH]c(=O)n(N(C(=O)C(C)(C)C)S(C)(=O)=O)c(=O)c2cc1-c1ccnn1C` [Example 3.23, N-(2,2-Dimethyl-propionyl)-N-[7-isopropyl-6-(2-methyl-2H-pyrazol-3-yl)-2,4-dioxo-1,4-dihydro-2H-quinazolin-3-yl]-methanesulfonamide], the responders at 50 mg/kg (pre-treatment time −1 h) amounted to 20%.
Regarding `CC(=O)N(n1c(=O)c2cc(-c3ccnn3C)c(C(C)C)cc2n(C(C)=O)c1=O)S(C)(=O)=O` [Example 3.24, N-Acetyl-N-[1-acetyl-7-isopropyl-6-(2-methyl-2H-pyrazol-3-yl)-2,4-dioxo-1,4-dihydro-2H-quinazolin-3-yl]-methanesulfonamide], the responders at 50 mg/kg (pre-treatment time −1 h) turned out to be 100%; the responders at 50 mg/kg (Table 5, pre-treatment time −0.25 h) was 100%; the responders at 50 mg/kg (Table 5, pre-treatment time −0.5 h) stood at 100%. The “%-Protection” value (Table 5, pre-treatment time −1 h) was 100%.
For the molecule `CCC(=O)N(n1c(=O)c2cc(-c3ccnn3C)c(C(C)C)cc2n(C(=O)CC)c1=O)S(C)(=O)=O` [Example 3.25, N-[7-Isopropyl-6-(2-methyl-2H-pyrazol-3-yl)-2,4-dioxo-1-propionyl-1,4-dihydro-2H-quinazolin-3-yl]-N-propionyl-methanesulfonamide], the responders at 50 mg/kg (pre-treatment time −1 h) came out at 100%.
Consider `CCCC(=O)N(n1c(=O)c2cc(-c3ccnn3C)c(C(C)C)cc2n(C(=O)CCC)c1=O)S(C)(=O)=O` [Example 3.26, N-Butyryl-N-[1-butyryl-7-isopropyl-6-(2-methyl-2H-pyrazol-3-yl)-2,4-dioxo-1,4-dihydro-2H-quinazolin-3-yl]-methanesulfonamide], for which, under “pre-treatment time −1 h”, the responders at 50 mg/kg is 80%.
As to `CC(=O)n1c(=O)n(N(C(=O)OCc2ccccc2)S(C)(=O)=O)c(=O)c2cc(-c3ccnn3C)c(C(C)C)cc21` [Example 3.27, [1-Acetyl-7-isopropyl-6-(2-methyl-2H-pyrazol-3-yl)-2,4-dioxo-1,4-dihydro-2H-quinazolin-3-yl]-methanesulfonyl-carbamic acid benzyl ester], the responders at 50 mg/kg (pre-treatment time −1 h) came out at 100%.
For `COCCOCCOCC(=O)N(n1c(=O)[nH]c2cc(C(C)C)c(-c3ccnn3C)cc2c1=O)S(C)(=O)=O` [Example 3.28, N-[7-Isopropyl-6-(2-methyl-2H-pyrazol-3-yl)-2,4-dioxo-1,4-dihydro-2H-quinazolin-3-yl]-N-[2-[2-(2-methoxy-ethoxy)-ethoxy]-acetyl]-methanesulfonamide], the responders at 50 mg/kg (pre-treatment time −1 h) was 100%.
Consider `CC(C)c1cc2[nH]c(=O)n(N(C(=O)COCc3ccccc3)S(C)(=O)=O)c(=O)c2cc1-c1ccnn1C` [Example 3.29, N-(2-Benzyloxy-acetyl)-N-[7-isopropyl-6-(2-methyl-2H-pyrazol-3-yl)-2,4-dioxo-1,4-dihydro-2H-quinazolin-3-yl]-methanesulfonamide], for which the responders at 50 mg/kg (pre-treatment time −1 h) turned out to be 100%.
As for `CC(C)c1cc2[nH]c(=O)n(N(C(=O)CCCOCc3ccccc3)S(C)(=O)=O)c(=O)c2cc1-c1ccnn1C` [Example 3.30, N-(4-Benzyloxy-butyryl)-N-[7-isopropyl-6-(2-methyl-2H-pyrazol-3-yl)-2,4-dioxo-1,4-dihydro-2H-quinazolin-3-yl]-methanesulfonamide], the responders at 50 mg/kg (pre-treatment time −1 h) was 100%.
As for `CC(C)c1cc2[nH]c(=O)n(N(C(=O)CN3CCOCC3)S(C)(=O)=O)c(=O)c2cc1-c1ccnn1C` [Example 3.31, N-[7-Isopropyl-6-(2-methyl-2H-pyrazol-3-yl)-2,4-dioxo-1,4-dihydro-2H-quinazolin-3-yl]-N-(2-morpholin-4-yl-acetyl)-methanesulfonamide], the responders at 50 mg/kg (pre-treatment time −1 h) was found to be 100%.
With `COC(=O)N(n1c(=O)c2cc(-c3ccnn3C)c(C(C)C)cc2n(C(=O)OC)c1=O)S(C)(=O)=O` [Example 3.32, 7-Isopropyl-3-(methoxycarbonyl-methanesulfonyl-amino)-6-(2-methyl-2H-pyrazol-3-yl)-2,4-dioxo-3,4-dihydro-2H-quinazoline-1-carboxylic acid methyl ester], under “pre-treatment time −1 h”, the responders at 50 mg/kg amounted to 80%.
Regarding `CCOC(=O)N(n1c(=O)c2cc(-c3ccnn3C)c(C(C)C)cc2n(C(=O)OCC)c1=O)S(C)(=O)=O` [Example 3.33], the responders at 50 mg/kg (pre-treatment time −1 h) worked out at 80%.
For `CCCOC(=O)N(n1c(=O)c2cc(-c3ccnn3C)c(C(C)C)cc2n(C(=O)OCCC)c1=O)S(C)(=O)=O` [Example 3.34, 7-Isopropyl-3-(methanesulfonyl-propoxycarbonyl-amino)-6-(2-methyl-2H-pyrazol-3-yl)-2,4-dioxo-3,4-dihydro-2H-quinazoline-1-carboxylic acid propyl ester], the responders at 50 mg/kg (pre-treatment time −1 h) is 80%.
Turning to `CCCCOC(=O)N(n1c(=O)c2cc(-c3ccnn3C)c(C(C)C)cc2n(C(=O)OCCCC)c1=O)S(C)(=O)=O` [Example 3.35, 3-(Butoxycarbonyl-methanesulfonyl-amino)-7-isopropyl-6-(2-methyl-2H-pyrazol-3-yl)-2,4-dioxo-3,4-dihydro-2H-quinazoline-1-carboxylic acid butyl ester], the responders at 50 mg/kg (pre-treatment time −1 h) came to 80%.
Take `COC(=O)n1c(=O)n(N(C(C)=O)S(C)(=O)=O)c(=O)c2cc(-c3ccnn3C)c(C(C)C)cc21` [Example 3.36, 3-(Acetyl-methanesulfonyl-amino)-7-isopropyl-6-(2-methyl-2H-pyrazol-3-yl)-2,4-dioxo-3,4-dihydro-2H-quinazoline-1-carboxylic acid methyl ester]: for the setting “pre-treatment time −1 h”, the responders at 50 mg/kg came out at 100%.
Consider `CC(C)c1cc2[nH]c(=O)n(N(C(=O)CCCN3CCOCC3)S(C)(=O)=O)c(=O)c2cc1-c1ccnn1C` [Example 3.37, N-[7-Isopropyl-6-(2-methyl-2H-pyrazol-3-yl)-2,4-dioxo-1,4-dihydro-2H-quinazolin-3-yl]-N-(4-morpholin-4-yl-butyryl)-methanesulfonamide], for which the responders at 50 mg/kg (pre-treatment time −1 h) worked out at 100%.
`CC(C)c1cc2[nH]c(=O)n(N(C(=O)CCN3CCOCC3)S(C)(=O)=O)c(=O)c2cc1-c1ccnn1C` [Example 3.38, N-[7-Isopropyl-6-(2-methyl-2H-pyrazol-3-yl)-2,4-dioxo-1,4-dihydro-2H-quinazolin-3-yl]-N-(3-morpholin-4-yl-propionyl)-methanesulfonamide]: the responders at 50 mg/kg (pre-treatment time −1 h) worked out at 80%.
As to `CCOC(=O)CCC(=O)N(n1c(=O)[nH]c2cc(C(F)(F)F)c(-n3ccnc3)cc2c1=O)S(C)(=O)=O` [Example 4.01, 4-[(6-Imidazol-1-yl-2,4-dioxo-7-trifluoromethyl-1,4-dihydro-2H-quinazolin-3-yl)-methanesulfonyl-amino]-4-oxo-butyric acid ethyl ester], the responders at 50 mg/kg (pre-treatment time −1 h) was determined as 20%.

For the origin of these results see US20130053381A1, “2,4-DIOXO-1,4-DIHYDRO-2H-QUINAZOLIN-3-YL-SULFONAMIDE DERIVATIVES” (NOVARTIS AG, priority 2010, published 2013).
